“Also recorded” adds a separate entry of the source. Non-standard residues stand in square brackets, D forms with d. No end group written: not given here.

Data set [1] concerns several mammalian cell types. As to conditions: energy-independent manner; Zhao et al., 2003; cited from earlier work.
The next data set has as its system mu-opioid receptor. As to conditions: cited from earlier work.
Data set [2] concerns mitochondria. Particulars: cited from earlier work.
Data set [3] deals with New Zealand white rabbits. Nature of the data set: Rabbit model of acute myocardial ischemia and reperfusion (30 min ischemia, 180 min reperfusion), infarct size by histomorphometry. The format is in vivo. The method, then: New Zealand white rabbits were used in this study. The rabbits were males and >10 weeks in age. Environmental controls in the animal rooms were set to maintain temperatures of 61° to 72° F. and relative humidity between 30% and 70%. Room temperature and humidity were recorded hourly, and monitored daily. There were approximately 10-15 air exchanges per hour in the animal rooms. Photoperiod was 12-hr light/12-hr dark (via fluorescent lighting) with exceptions as necessary to accommodate dosing and data collection. Routine daily observations were performed. Harlan Teklad, Certified Diet (2030C), rabbit diet was provided approximately 180 grams per day from arrival to the facility. In addition, fresh fruits and vegetables were given to the rabbit 3 times a week.
The peptide D-Arg-2′6′-Dmt-Lys-Phe-NH2 (sterile lyophilized powder) was used as the test article. Dosing solutions were formulated at no more than 1 mg/ml, and were delivered via continuous infusion (IV) at a constant rate (e.g., 50 μL/kg/min). Normal saline (0.9% NaCl) was used as a control.
The test/vehicle articles were given intravenously, under general anesthesia, in order to mimic the expected route of administration in the clinical setting of AMI and PTCA. Intravenous infusion was administered via a peripheral vein using a Kd Scientific infusion pump (Holliston, MA 01746) at a constant volume (e.g., 50 μL/kg/min).
The study followed a predetermined placebo and sham controlled design. In short, 10-20 healthy, acclimatized, male rabbits were assigned to one of three study arms (approximately 2-10 animals per group). Arm A (n=10, CTRL/PLAC) includes animals treated with vehicle (vehicle; VEH, IV); Arm B (n=10, treated) includes animals treated with peptide; Arm C (n=2, SHAM) includes sham-operated time-controls treated with vehicle (vehicle; VEH, IV) or peptide.
In all cases, treatments were started approximately 10 min after the onset of a 30 min ischemic insult (coronary occlusion) and continued for up to 3 h following reperfusion. In all cases, cardiovascular function was monitored both prior to and during ischemia, as well as for up to 180 min (3 h) post-reperfusion. The experiments were terminated 3 h post-reperfusion (end of study); irreversible myocardial injury (infarct size by histomorphometery) at this time-point was evaluated, and was the primary-end-point of the study.
Following hemodynamic stabilization and baseline measurements, the animals were subjected to an acute 30 min ischemic insult by tightening of the LAD/LCX coronary artery snares. […]
Histopathology/Histomorphometery. At the completion of the protocol, irreversible myocardial injury (i.e., infarction) resulting from the I/R insult was evaluated. […]

The next data set deals with wild type mice. Particulars: treatment at 0, 6, 24 and 48 hours after 30 min occlusion; U.S. Patent Publication No. 20070129306; cited from earlier work.
A short description of data set [4]: Stability of the drug substance. The class given is physicochemical. The method, then:
Study Drug. D-Arg-2′6′-Dmt-Lys-Phe-NH2 is a small peptide (CAS No. 736992-21-5). Its molecular weight is 639.8 (free base). […] The drug substance will be provided as a lyophilized powder in sterile glass vials. Each vial will be reconstituted with 10 mL of sterile D5W by the unblinded pharmacist at each site.

The test system of another data set is animal model of ARI. Particulars: cited from earlier work.
Data set [5] concerns mitochondria. Particulars: cited from earlier work. This is another data set of the same source.
[6] abbreviates: IV continuous infusion from 10 min into 30 min ischemia through 180 min reperfusion, n = 10, p < 0.05 vs placebo.
The mark [7] stands for this setting: 45 min ischemia and 24 h reperfusion.

With 2′,6′-Dmt-D-Arg-Phe-Lys-NH2, in data set [1], the “penetration of the plasma membrane” value was “readily penetrates”.

Regarding D-Arg-2′,6′-Dmt-Lys-Phe-NH2, the “mu-opioid receptor agonist activity” value in the data set on mu-opioid receptor is on record as “does not have mu-opioid receptor agonist activity”. Also, in the data set on mitochondria [2], the “adenosine triphosphate (ATP) levels” value is listed as “maintaining”, the “electron transfer within the mitochondrial electron transport chain” value is “facilitating”, the “loss of mitochondrial membrane potential” value was “preventing” and the “mitochondrial respiration (oxygen consumption)” value is “maintaining”. In the data set on mitochondria [2], the “mitochondrial swelling (mPTP opening)” value is given as “preventing”, the “reactive oxygen species (ROS)” value is “scavenging” and the “release of cytochrome c” value is reported as “preventing”. In addition, the “myocardial infarct size compared to the control” value in data set [3] (30 min ischemia, infusion continued 180 min after reperfusion, listed as peptide) is given as “decreased infarct size; also recorded: able to reduce myocardial infarct size”. Also, in data set [3] (setting [6]), the “Myocardial Area IA/AR (infarcted area / area at risk)” value is 24.7 ± 4.7% and the “Myocardial Area IA/LV (infarcted area / left ventricular area)” value amounted to 16.2 ± 3.4%. For the same substance, in data set [3] (treatment for less than 3 hours after reperfusion, i.e., 30 min, data not shown), the myocardial salvage entry is on record as “comparable myocardial salvage”. Further, in the data set on wild type mice, the “hemispheric swelling compared to saline controls” value is reported as “significant reduction” and the “infarct volume compared to saline controls” value is recorded as “significant reduction”. Also, in data set [4], the resistance to oxidation result is recorded as “resistant to oxidation” and the “temperature up to which stable” value was “up to 40 °C”. Also, in data set [4] (powder or liquid form), the stability to light entry is recorded as “stable to light”. Moreover, in the data set with animal model of ARI (setting [7]), the histopathological score result is recorded as “significantly improved” and the “rate of ATP production after reperfusion” value is “significantly increased”. Moreover, in the data set on animal model of ARI (U.S. Patent Publication No. 20090221514), the “incidence of ARI caused by ischemia-reperfusion” value is “effective in reducing”. The “interstitial fibrosis, tubular apoptosis, macrophage infiltration and tubular proliferation” value with animal model of ARI (animal model of ARI) is on record as “effective in reducing”. Besides, in the data set with mitochondria [5], the “concentration in the mitochondrial pellet relative to extracellular fluid” value is “approximately 5000 fold” and the “intracellular concentration relative to extracellular fluid” value is reported as “six”.

On to F[dR]FK-NH2, for which the “mu-opioid receptor agonist activity” value in the data set with mu-opioid receptor is recorded as “does not have mu-opioid receptor agonist activity”.

With Tyr-D-Arg-Phe-Lys-NH2, the “mu-opioid receptor agonist activity” value with mu-opioid receptor is “has mu-opioid receptor agonist activity”.
